{"source": "patent US20210030700A1", "about": "“COMPOSITION FOR PREVENTING AND TREATMENT OF SPINAL CORD INJURY” (NEUROBIOGEN CO.,LTD, priority 2018, published 2021)", "assay_type_in_all_cases": "in vivo, Sprague-Dawley rats", "key": {"[1]": {"test_system": "spinal cord-injured rats and normal rats", "test": "Basso-Beattie-Bresnahan (BBB) locomotor rating behavior test", "method": "(§1) The animal models of spinal cord injury herein used were adult male Sprague-Dawley rats weighing 180 to 200 g, and the rats were anesthetized by intraperitoneal injection of ketamine. Laminectomy was conducted on the T9 portion to expose the spinal cord, the spinal cord was compressed for 10 seconds using a dedicated forceps (self-closed forceps, Germany) to induce spinal cord injury, and then the muscles and skin were sutured.\n(§2) Of the 50 spinal cord injury animal models in total, 5 were a non-drug-administered control group (Normal), 5 were a drug-administered control group (Normal/KDS2010), 20 were a non-drug-administered group subjected to spinal cord injury (SCI), and 20 were a drug-administered group subjected to spinal cord injury (SCI/KDS2010). 2 weeks after induction of spinal cord injury, a mixture of the drug and drinking water was administered at a dose of 10 mg/kg.\nA motor function test was performed 10 times in total weekly for 10 weeks after spinal cord injury, and the recovery of hindlimb function in the animals was evaluated using the Basso-Beattie-Bresnahan (BBB) motor score. The BBB score is divided into 21 points in total, and is broadly classified into 3 steps. In the first recovery phase, the degree of the joint movement and whether or not the soles contact the floor was checked, in the second recovery phase, the degree of recovery of weighted gait was monitored, and in the final stage, the balance of the gait and the recovery of the tail were mainly observed. The neuropathic pain response test upon spinal cord injury was conducted through the measurement of a change in mechanical paw withdrawal using a dynamic plantar aesthesiometer and was conducted weekly for 3 weeks after the injury causing response to the soles. This test was conducted by applying a force of 0 to 50 g to the sole of the paw of the hindlimb using a needle with a diameter of 0.5 mm for 20 seconds. At this time, the force applied when the sole withdrawal occurred due to pain was measured.\nA behavior test was performed using a Basso-Beattie-Bresnahan (BBB) locomotor rating system after administration of KDS2010 to spinal-cord-injured rats and normal rats in the same manner as in Example 1-3 above. The result of the behavior test was expressed as a BBB score."}, "[2]": {"test_system": "spinal cord-injured rats and normal rats", "test": "EC staining of the injured area (T9), myelination of spinal cord tissue", "method": "as §1, §2\nFor EC staining (Eriochrome (Solochrome) cyanine staining), spinal cord tissue was obtained at 10 weeks after spinal cord injury, fixed with 4% paraformaldehyde, and dehydrated to perform freeze embedding. EC staining was performed on the injured area (thoracic vertebrae #9, T9) in 5 rats for the control group, 10 rats for the spinal cord-injured non-drug-administered group and 10 rats for the spinal cord-injured drug-administered group.\nThe EC staining is a staining method that can compare the areas of tissue and the myelinated part between groups because the myelinated part is stained in blue, whereas other nuclei, nerves, and non-myelinated parts appear in white.\nEC staining was conducted on the injured area (thoracic vertebrae #9, T9) of the non-drug-administered control group, the drug-administered control group, the spinal cord-injured non-drug-administered group and the spinal cord-injured drug-administered group, in the same manner as in Example 1-4, and the results of myelinated parts were quantified."}, "spinal cord injury model [3]": {"test_system": "spinal cord injury model", "test": "Toluidine blue (TB) staining and TEM imaging, re-myelination of spinal cord injury site", "conditions": "spinal cord injury model treated with KDS2010", "method": "as §1\nSpecifically, the number of […], the number of cavities and a g-ratio were measured through toluidine blue (TB) staining and TEM imaging."}, "spinal cord injury model [4]": {"test_system": "spinal cord injury model", "test": "BrdU immunofluorescence staining of spinal nerves, formation of new nerve cells", "conditions": "spinal cord injury model treated with KDS2010; BrdU 50 mg/kg/day i.p.", "method": "as §1\nA test to determine whether or not treatment with KDS2010 has an effect of inducing differentiation of new nerve cells was conducted in order to investigate the effect of spinal cord regeneration.\nSpecifically, BrdU was administered at a dose of 50 mg/kg/day to test animals by i.p. injection one week before scarification, and spinal nerves were subjected to immunofluorescence staining and then observed."}, "spinal cord injury model [5]": {"test_system": "spinal cord injury model", "test": "Immunofluorescence staining for macrophage marker CD68 and microglia marker Ibal", "conditions": "KDS2010-administered spinal cord injury model group", "method": "as §1\nWhen a spinal cord injury occurs, destroyed cells and cell clusters were observed inward from the injured site. These cells may cause an inflammatory reaction and interfere with regeneration from spinal cord injury. A test was conducted to investigate the effect of the drug KDS2010 on inflammatory reaction.\nSpecifically, the spinal cord injury model administered with KDS2010 was subjected to immunofluorescence staining to determine whether or not the cells were positive for the macrophage marker CD68 and the microglia marker Ibal."}, "[6]": {"test_system": "spinal cord-injured rats and normal rats", "test": "Pain response evaluation using a dynamic plantar test", "method": "as §1, with “sutured. […]” for “sutured.”\nA motor function test was performed 10 times in total weekly for 10 weeks after spinal cord injury, and the recovery of hindlimb function in the animals was evaluated using the Basso-Beattie-Bresnahan (BBB) motor score. […] In the first recovery phase, the degree of the joint movement and whether or not the soles contact the floor was checked, in the second recovery phase, the degree of recovery of weighted gait was monitored, and in the final stage, the balance of the gait and the recovery of the tail were mainly observed. […] At this time, the force applied when the sole withdrawal occurred due to pain was measured.\nA pain relief degree was measured using a pain response evaluation based on a dynamic plantar test after administration of KDS2010 to spinal-cord-injured rats and normal rats in the same manner as in Example 1-3 above."}, "[7]": {"conditions": "SCI/KDS2010 vs SCI, 10 weeks after injury"}, "[8]": {"conditions": "drug-administered control group (Control/KDS2010), 10 weeks"}}, "data": [{"smiles": "C[C@H](NCc1ccc(-c2ccc(C(F)(F)F)cc2)cc1)C(N)=O", "note": "[KDS2010, (S)-2-(((4′-trifluoromethylbiphenyl-4-yl)methyl)amino)propanamide methanesulfonate]", "values": [{"measurement": "gait and behavioral function in BBB test", "setting": "[1]; SCI/KDS2010, last week (10 weeks after injury)", "value": "balanced gait and restored behavioral function"}, {"measurement": "BBB score compared to spinal cord-injured group not administered with the drug", "setting": "[1]; SCI/KDS2010 vs SCI", "value": "significantly improved"}, {"measurement": "BBB score", "setting": "[1]; drug-administered control group (Normal/KDS2010), normal rats, 10 mg/kg in drinking water", "value": 21, "unit": "points"}, {"measurement": "BBB score", "setting": "[1]; spinal cord-injured drug-administered group (SCI/KDS2010), 10 mg/kg in drinking water from 2 weeks after injury, starting at 5 weeks", "value": "≥ 10", "unit": "points"}, {"measurement": "total myelinated area compared to spinal cord-injured non-drug-administered group", "setting": "[2]; [7]", "value": "increased"}, {"measurement": "total tissue area compared to spinal cord-injured non-drug-administered group", "setting": "[2]; [7]", "value": "increased"}, {"measurement": "proportion of the total myelinated area to the total tissue area", "setting": "[2]; [8]", "value": "large"}, {"measurement": "total myelinated area", "setting": "[2]; [8]", "value": "large"}, {"measurement": "total tissue area", "setting": "[2]; [8]", "value": "large"}, {"measurement": "number of cavities", "setting": "spinal cord injury model [3]", "value": "rapidly decreased"}, {"measurement": "number of myelinated exons", "setting": "spinal cord injury model [3]", "value": "recovered to an almost normal value"}, {"measurement": "g-ratio", "setting": "spinal cord injury model [3]; normal range 0.79±0.0005", "value": "within the normal range"}, {"measurement": "formation of new nerve cells", "setting": "spinal cord injury model [4]", "value": "exhibited newly formed nerve cells"}, {"measurement": "number of cells positive to CD68", "setting": "spinal cord injury model [5]", "value": "significantly decreased"}, {"measurement": "number of cells positive to Ibal", "setting": "spinal cord injury model [5]", "value": "significantly decreased"}, {"measurement": "threshold value for pain compared to spinal cord-injured non-drug-administered group", "setting": "[6]; SCI/KDS2010 vs SCI", "value": "significantly increased"}, {"measurement": "threshold value for pain", "setting": "[6]; drug-administered control group (Normal/KDS2010), normal rats", "value": "high threshold value"}]}]}
